Source: PubChem BioAssay (NCI)
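A five-concentration, 48-hour dose response in 96-well plates underlies each endpoint, interpolated linearly between surrounding concentrations. GI50 = concentration required for 50% inhibition of growth. The concentration for full growth arrest is given as TGI.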 Where a SMILES comes first, the peptide text is derived from it. [ ]: non-standard residue; d: D form. The star is where a group is joined. ξ: configuration not given here. X37 = O=C(OCc1ccccc1)[C@@H]1CCC[C@H]1N*; Fmoc = O=C(OCC1c2ccccc2-c2ccccc21)*; ξW = NC(Cc1c[nH]c2ccccc12)C(=O)O; ξF = NC(Cc1ccccc1)C(=O)O; Boc = CC(C)(C)OC(=O)*; ξK = NCCCCC(N)C(=O)O; ξT = CC(O)C(N)C(=O)O; tBu = CC(C)(C)*

Tests used:
Test in all cases: growth of human tumour cells (NCI), 48 h
K-562 leukemia = test system: K-562 leukemia
CCRF-CEM leukemia = test system: CCRF-CEM leukemia
COLO 205 colon = test system: COLO 205 colon
ACHN renal = test system: ACHN renal
UO-31 renal = test system: UO-31 renal
HS 578T breast = test system: HS 578T breast
NCI-H522 lung = test system: NCI-H522 lung
UACC-62 melanoma = test system: UACC-62 melanoma
HCC-2998 colon = test system: HCC-2998 colon
HL-60(TB) leukemia = test system: HL-60(TB) leukemia
M14 melanoma = test system: M14 melanoma

| Structure (SMILES) | TGI (K-562 leukemia) [µM] | TGI (CCRF-CEM leukemia) [µM] | TGI (COLO 205 colon) [µM] | TGI (ACHN renal) [µM] | TGI (UO-31 renal) [µM] | TGI (HS 578T breast) [µM] | TGI (NCI-H522 lung) [µM] | TGI (UACC-62 melanoma) [µM] | TGI (HCC-2998 colon) [µM] | TGI (HL-60(TB) leukemia) [µM] | TGI (M14 melanoma) [µM] | GI50 (M14 melanoma) [µM] |
| --- | --- | --- | --- | --- | --- | --- | --- | --- | --- | --- | --- | --- |
| CCC1=C(C)C2=NC1=CC1=NC(=C(CC)/C1=C/O)C=C1N=C3C(=C1C)C(=O)C(C(=O)OC)C3=C1NC(=C2)C(C)C1CCC(=O)OC (stereo unspecified) | > 100 | > 100 | > 100 | > 100 | > 100 | > 100 | > 100 | > 100 | > 100 | > 100 | > 100 | – |
| COc1ccc2c(c1)CC[C@@H]1C2CC[C@]2(C)OC(=O)CCC12 (stereo partly specified) | > 100 | > 100 | > 100 | > 100 | 48.5 | 60.6 | 19.4 | > 100 | > 100 | > 100 | 36 | – |
| Cc1cn2c(/C=C3/C(=O)Nc4ccccc43)c(-c3ccccc3)nc2s1 | > 100 | > 100 | > 100 | > 100 | 61.2 | 91 | > 100 | > 100 | > 100 | > 100 | > 100 | – |
| CC(=O)OCc1ccc(-c2nc(C#N)c(N)o2)o1 | > 10 | > 10 | > 10 | > 10 | > 10 | > 10 | > 10 | > 10 | > 10 | > 10 | > 10 | – |
| CC(C)(C)[C@@H]1NC(=O)CN1C(=O)OCc1ccccc1 | > 100 | > 100 | > 100 | > 100 | > 100 | > 100 | > 100 | > 100 | > 100 | > 100 | > 100 | – |
| CC1(C)OC1CC/C(=C/CBr)CBr (stereo unspecified) | 49 | 34.1 | 29.4 | 30.9 | 28.9 | 47.7 | 23.5 | – | 29.8 | 23.9 | 36.5 | – |
| CC(OC(C)(C)C)C(NC(=O)C(CCCCNC(=O)OC(C)(C)C)NC(=O)C(Cc1c[nH]c2ccccc12)NC(=O)C(Cc1ccccc1)NC(=O)OCC1c2ccccc2-c2ccccc21)C(=O)NC(Cc1ccccc1)C(=O)N[C@@H]1CCC[C@H]1C(=O)OCc1ccccc1 (stereo partly specified) (Fmoc-[ξF][ξW][ξK](Boc)[ξT](tBu)[ξF]-X37) | > 100 | > 100 | > 100 | > 100 | > 100 | > 100 | > 100 | > 100 | > 100 | > 100 | > 100 | – |
| CCOc1ccc(N=NC2C(=O)N(C(=O)CC(=O)Nc3ccc(Cl)cc3)N=C2C)cc1 (stereo unspecified) | – | > 100 | > 100 | > 100 | > 100 | > 100 | > 100 | > 100 | > 100 | > 100 | > 100 | – |
| OC1(c2ccc(Cl)cc2)c2ccccc2C2=Nc3ccccc3CN21 (stereo unspecified) | > 100 | > 100 | > 100 | 28.6 | > 100 | 74.1 | 67.2 | > 100 | > 100 | > 75.5 | > 100 | – |
| COC(=O)c1ccc(/C=C/C2=CC(=O)C=CC2=O)cc1 | 8.55 | 6.54 | > 52.5 | 32.7 | 17.9 | > 100 | 3.6 | 40.2 | 38.5 | 5.9 | > 67.2 | – |
| CCC(C#N)N(Cc1cccc(CN(C(C)=O)C(C#N)CC)c1)C(C)=O (stereo unspecified) | > 100 | > 100 | > 100 | > 100 | > 100 | > 100 | > 100 | > 100 | > 100 | > 100 | > 100 | – |
| CC(C)C[C@H](NC(=O)[C@@H](Cc1cccc2ccccc12)NC(=O)N1CCOCC1)B(O)O | 46.6 | 15.2 | 36.4 | > 100 | 41.5 | > 25.6 | 4.4 | 16 | 4.47 | > 24.6 | 10.8 | – |
| COc1ccc(NS(=O)C2CCCCC2)cc1 (stereo unspecified) | > 100 | > 100 | > 100 | > 100 | > 100 | > 100 | > 100 | – | > 100 | > 100 | > 100 | – |
| COc1ccc(OC)c2c1C[C@@H]1C(C#N)N3[C@H](Cc4c(OC)ccc(OC)c4[C@@H]3C)C(=O)N1[C@H]2C (stereo partly specified) | 7.26 | 6.75 | 3.52 | 9.53 | 4.54 | > 100 | 3.3 | 6.52 | 14.4 | 6.18 | 8.54 | – |
| Cc1cc(SCC(=O)c2ccc(Br)cc2)cc(C)[o+]1 | 74.9 | 44 | 83.7 | 96.2 | 83.9 | > 100 | 65.2 | > 100 | 75.2 | 33.8 | 79.1 | – |
| CC(=O)c1ccc2c(c1)CC1(C2)Cc2cc3c(cc2C1)C(=O)CC3 (stereo unspecified) | 2.32 | 3.87 | 1.66 | 35.2 | 66.9 | > 69.2 | 14.2 | 28.7 | 7.48 | 2.1 | 17.6 | – |
| COc1ccc2c(c1)CCC(CN1CCN(CCOC(c3ccc(F)cc3)c3ccc(F)cc3)CC1)=C2 | > 100 | > 100 | 10.4 | > 100 | – | 50.7 | 27.8 | 49 | 19 | 30.3 | 27.4 | – |
| Cn1c2ccccc2n2c(=O)c(-c3ccc(O)cc3)nnc12 | – | > 100 | > 100 | > 100 | > 100 | > 100 | > 100 | – | > 100 | > 100 | > 100 | – |
| CC1CCN(c2nnc(Cl)cc2C(=O)c2ccccc2)CC1 | > 100 | 45.9 | 46.9 | > 100 | > 100 | 88.7 | 77.7 | > 100 | 96.6 | > 100 | 95.5 | – |

| Structure (SMILES) | TGI (K-562 leukemia) [µM] | TGI (CCRF-CEM leukemia) [µM] | TGI (COLO 205 colon) [µM] | TGI (ACHN renal) [µM] | TGI (UO-31 renal) [µM] | TGI (HS 578T breast) [µM] | TGI (NCI-H522 lung) [µM] | TGI (UACC-62 melanoma) [µM] | TGI (HCC-2998 colon) [µM] | TGI (HL-60(TB) leukemia) [µM] | TGI (M14 melanoma) [µM] | GI50 (M14 melanoma) [µM] |
| --- | --- | --- | --- | --- | --- | --- | --- | --- | --- | --- | --- | --- |
| COC(=O)CCCc1ccc2c(c1)CCC2 | – | > 100 | > 100 | > 100 | > 100 | > 100 | > 100 | > 100 | > 100 | > 100 | > 100 | – |
| COc1cc(/C=C\c2ccc(SC)cc2)cc(OC)c1OC | > 46.8 | > 47.1 | 0.108 | > 100 | 45.3 | > 100 | 0.0369 | > 100 | 2.17 | 0.463 | > 100 | – |
| CCN(CC)P1(=S)Oc2ccc3ccccc3c2-c2c(ccc3ccccc23)O1 | > 100 | > 100 | > 100 | > 100 | > 100 | > 100 | > 100 | > 100 | > 100 | > 100 | > 100 | – |
| CCCCN(CCCC)CC(=O)c1ccc2cc(Cl)c3ccccc3c2c1 | > 100 | > 100 | 34.1 | 49 | 50.4 | > 100 | 47.3 | > 100 | 76.8 | > 100 | > 100 | – |
| COC(=O)c1c(C)nc(C)c(N=O)c1-c1ccccc1C(F)(F)F | > 100 | > 100 | > 100 | > 100 | 37.1 | 44.8 | 18.7 | > 100 | > 100 | > 100 | 47.1 | – |
| Brc1ccc(-c2ccc(-c3ccc(Br)s3)s2)s1 | > 100 | > 100 | > 100 | > 100 | > 100 | > 100 | – | > 100 | > 100 | > 100 | > 100 | – |
| COc1ccccc1NC(=S)N/N=C(/c1ccccc1)c1ccccn1 | – | 9.54 | 0.59 | 11.8 | 14.1 | 53.9 | 17.3 | 9.23 | 29.1 | 2.18 | 9.52 | – |
| CC1OC(OC2C(CO)OC(O[C@H]3CC[C@@]4(C)C(=CC[C@H]5[C@@H]6C[C@@H]7O[C@](O)(CC[C@@H](C)COC8OC(CO)C(O)C(O)C8O)[C@@H](C)[C@@H]7[C@@]6(C)CC[C@@H]54)C3)C(OC3OC(C)C(O)C(O)C3O)C2O)C(O)C(O)C1O (stereo partly specified) | > 43.4 | 6.38 | 6.81 | 12.2 | 8.39 | > 100 | 4.41 | 5.68 | 7.28 | 4.14 | 4.69 | 2.24 |
| O=C(/C=C1\N=C(c2ccccc2)N(c2ccc3c(c2)Sc2cc(N4C(=O)/C(=C/C(=O)/C=C/c5ccccc5)N=C4c4ccccc4)ccc2N3)C1=O)/C=C/c1ccccc1 | > 100 | 63 | > 100 | > 100 | > 100 | 96.3 | 46.8 | 33.3 | > 100 | > 100 | > 100 | – |
| Cc1nn(-c2ccccc2)c(C)c1/C=N/NC(=O)c1sc(=S)n(-c2ccc(Cl)cc2)c1N | > 100 | > 100 | 38.9 | > 100 | 55.7 | 7.6 | – | 74.1 | 88.4 | > 100 | > 100 | – |
| COc1ccc(N=NN2CCCC2)cc1 | > 100 | 56.6 | 35.5 | 29.9 | > 100 | > 100 | 32.2 | > 100 | > 100 | > 100 | > 100 | – |
| CC(C)(C)c1cc(C2COC(=O)COCCOCC(=O)OCCOCCO2)cc(C(C)(C)C)c1O (stereo unspecified) | > 100 | > 100 | > 100 | 37.2 | 30.5 | 77.7 | > 94 | > 100 | 43 | > 100 | > 100 | – |
| Cc1ccc(Nc2ncnc3sc(SCc4ccccc4)nc23)cc1 | > 100 | > 100 | > 100 | > 100 | > 100 | > 100 | > 100 | – | > 100 | > 100 | > 100 | – |
| CCCCc1ccc(N2C(=O)c3cc(C)cnc3S2(=O)=O)cc1 | > 100 | – | > 100 | > 100 | > 100 | > 100 | > 100 | – | > 100 | > 100 | > 100 | – |
| CCOC(=O)C1(C(=O)OCC)C[C@H]2CON=C2[C@@H]1c1ccc(C(F)(F)F)cc1 | > 100 | 23.7 | > 100 | 34.4 | 27.5 | > 100 | 61 | > 100 | 87.4 | > 100 | > 100 | – |
| CC1(c2cccc(C3CCC4(C=CC3=O)OCCO4)c2)OCCO1 (stereo unspecified) | 25.1 | 10.5 | 18.6 | 15.5 | 12.7 | 41.8 | 3.53 | 18.1 | 33.1 | 20 | 20.1 | – |
| CCOC(=O)c1cc(-c2ccc(OC)c(OC)c2)cn1C | > 10 | > 10 | > 10 | > 10 | > 10 | > 10 | > 10 | > 10 | > 10 | > 10 | > 10 | – |
| CCOC(=O)c1c(OCC)[nH]c(=O)c(C(c2ccc(F)cc2)c2c(O)c(C(=O)OCC)c(OCC)[nH]c2=O)c1O | 50.8 | > 100 | 79.8 | 31.7 | 25.7 | > 100 | 42 | 30.3 | 39 | 54.3 | 63.3 | – |
| C#CCNC(Cc1ccccc1)C(=O)O (stereo unspecified) | > 100 | > 100 | > 100 | > 100 | > 100 | > 100 | > 100 | > 100 | > 100 | > 100 | > 100 | – |
